#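 Five compound concentrations were applied to cells in 96-well plates for 48 hours; endpoints were derived by simple linear interpolation of the resulting dose-response curve. GI50 = concentration required for 50% inhibition of growth. TGI marks complete inhibition of growth.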 Peptide text beside a SMILES is read from it. * marks the point of attachment. Boc = CC(C)(C)OC(=O)*
# What was measured:
# Assay in all cases: NCI anticancer screen, dose series, 48 h
# [1] = tested on: HS 578T breast
# [2] = tested on: UACC-62 melanoma
# [3] = tested on: 786-0 renal
# [4] = tested on: A498 renal
# [5] = tested on: A549 NSCLC
# [6] = tested on: ACHN renal
# [7] = tested on: CAKI-1 renal
# [8] = tested on: CCRF-CEM leukemia
# [9] = tested on: COLO 205 colon
# [10] = tested on: DU-145 prostate
# [11] = tested on: EKVX NSCLC
# [12] = tested on: HCC-2998 colon
# [13] = tested on: HCT-116 colon
# [14] = tested on: HCT-15 colon
# [15] = tested on: HL-60(TB) leukemia
# [16] = tested on: HOP-62 NSCLC
# [17] = tested on: HOP-92 NSCLC
# [18] = tested on: HT29 colon
# [19] = tested on: IGROV1 ovarian
# [20] = tested on: K-562 leukemia
# [21] = tested on: KM12 colon
# [22] = tested on: LOX IMVI melanoma
# [23] = tested on: M14 melanoma
# [24] = tested on: MALME-3M melanoma
# [25] = tested on: MCF7 breast
# [26] = tested on: MDA-MB-231 breast
# [27] = tested on: MDA-MB-435
# [28] = tested on: MOLT-4 leukemia
# [29] = tested on: NCI-H226 lung
# [30] = tested on: NCI-H23 lung
# [31] = tested on: NCI-H460 lung
# [32] = tested on: NCI-H522 lung
# [33] = tested on: NCI/ADR-RES ovarian
# [34] = tested on: OVCAR-3 ovarian
# [35] = tested on: OVCAR-4 ovarian
# [36] = tested on: OVCAR-5 ovarian
# [37] = tested on: OVCAR-8 ovarian
# [38] = tested on: PC-3 prostate
# [39] = tested on: RPMI-8226 leukemia
# [40] = tested on: RXF 393 renal
# [41] = tested on: SF-268 CNS
# [42] = tested on: SF-295 CNS
# [43] = tested on: SF-539 CNS
# [44] = tested on: SK-MEL-2 melanoma
# [45] = tested on: SK-MEL-28 melanoma
# [46] = tested on: SK-MEL-5 melanoma
# [47] = tested on: SK-OV-3 ovarian
# [48] = tested on: SN12C renal
# [49] = tested on: SNB-19 CNS
# [50] = tested on: SNB-75 CNS
# [51] = tested on: SR leukemia
# [52] = tested on: SW-620 colon
# [53] = tested on: T-47D breast
# [54] = tested on: TK-10 renal
# [55] = tested on: U251 CNS
# [56] = tested on: UACC-257 melanoma
# [57] = tested on: UO-31 renal
smiles,measurement,setting,value
CC(C)C(NC(=O)OC(C)(C)C)C(=O)N1CCCC1C(=O)O (stereo not drawn) (Boc-Val-Pro-OH; configuration not given here),GI50,[1],36.1 µg/mL
same,GI50,[2],94.1 µg/mL
COc1cc2c(cc1OCC(=O)Nc1ccc(Cl)cc1C(=O)c1ccccc1Cl)N=CC1CCCN1C2=O (stereo unspecified),GI50,[3],12.4 µM
same,TGI,[3],26 µM
same,GI50,[4],12.3 µM
same,TGI,[4],24.9 µM
same,GI50,[5],16.8 µM
same,TGI,[5],33 µM
same,GI50,[6],11.5 µM
same,TGI,[6],23.8 µM
same,GI50,[7],13.6 µM
same,TGI,[7],28.3 µM
same,GI50,[8],6.52 µM
same,TGI,[8],> 100 µM
same,GI50,[9],14.2 µM
same,TGI,[9],30.8 µM
same,GI50,[10],2.65 µM
same,TGI,[10],8.56 µM
same,GI50,[11],20.3 µM
same,TGI,[11],35.1 µM
same,GI50,[12],13.4 µM
same,TGI,[12],34.3 µM
same,GI50,[13],7.18 µM
same,TGI,[13],20.5 µM
same,GI50,[14],12.6 µM
same,TGI,[14],26 µM
same,GI50,[15],16.3 µM
same,TGI,[15],56.2 µM
same,GI50,[16],13.8 µM
same,TGI,[16],28.6 µM
same,GI50,[17],10.9 µM
same,TGI,[17],28.8 µM
same,GI50,[1],7.17 µM
same,TGI,[1],24 µM
same,GI50,[18],11.9 µM
same,TGI,[18],34.2 µM
same,GI50,[19],3.9 µM
same,TGI,[19],16.4 µM
same,GI50,[20],4.23 µM
same,TGI,[20],19.9 µM
same,GI50,[21],11.8 µM
same,TGI,[21],26 µM
same,GI50,[22],12.1 µM
same,TGI,[22],26.2 µM
same,GI50,[23],14.1 µM
same,TGI,[23],27.9 µM
same,GI50,[24],20.1 µM
same,TGI,[24],37 µM
same,GI50,[25],5.27 µM
same,TGI,[25],17.5 µM
same,GI50,[26],10.7 µM
same,TGI,[26],25.7 µM
same,GI50,[27],13 µM
same,TGI,[27],26.3 µM
same,GI50,[28],4.44 µM
same,TGI,[28],28.2 µM
same,GI50,[29],17.6 µM
same,TGI,[29],34.3 µM
same,GI50,[30],13.6 µM
same,TGI,[30],30.5 µM
same,GI50,[31],11.1 µM
same,TGI,[31],27.1 µM
same,GI50,[32],2.59 µM
same,TGI,[32],7.17 µM
same,GI50,[33],21.5 µM
same,TGI,[33],64.8 µM
same,GI50,[34],3.72 µM
same,TGI,[34],14.6 µM
same,GI50,[35],14.4 µM
same,TGI,[35],32.9 µM
same,GI50,[36],24.6 µM
same,TGI,[36],45.5 µM
same,GI50,[37],12 µM
same,TGI,[37],26.3 µM
same,GI50,[38],12.3 µM
same,TGI,[38],33.2 µM
same,GI50,[39],20.3 µM
same,TGI,[39],98.8 µM
same,GI50,[40],4.31 µM
same,TGI,[40],15.6 µM
same,GI50,[41],12.9 µM
same,TGI,[41],33 µM
same,GI50,[42],8.48 µM
same,TGI,[42],22.9 µM
same,GI50,[43],19.6 µM
same,TGI,[43],33.9 µM
same,GI50,[44],7.4 µM
same,TGI,[44],19.6 µM
same,GI50,[45],19.9 µM
same,TGI,[45],36.4 µM
same,GI50,[46],10 µM
same,TGI,[46],21.9 µM
same,GI50,[47],3.08 µM
same,TGI,[47],12 µM
same,GI50,[48],13.8 µM
same,TGI,[48],27.8 µM
same,GI50,[49],14.9 µM
same,TGI,[49],30.1 µM
same,GI50,[50],14.2 µM
same,TGI,[50],28.8 µM
same,GI50,[51],3.7 µM
same,TGI,[51],28 µM
same,GI50,[52],11.8 µM
same,TGI,[52],25.8 µM
same,GI50,[53],5.21 µM
same,TGI,[53],22.2 µM
same,GI50,[54],12.2 µM
same,TGI,[54],25.1 µM
same,GI50,[55],6.36 µM
same,TGI,[55],19.3 µM
same,GI50,[56],16.6 µM
same,TGI,[56],30.2 µM
same,GI50,[2],15.2 µM
same,TGI,[2],29.2 µM
same,GI50,[57],7.97 µM
same,TGI,[57],20.5 µM

# — PubChem BioAssay (NCI)
